According to patent US10828284B2, “Compositions and methods for treating conditions related to elevated levels of eosinophils and/or basophils” (Knopp Biosciences LLC, priority 2013, dated 2020):
Like-named read-outs stand apart in the source and are kept apart here.

What was measured:
[1] = humans, exposures up to 18 months
[2] = test system: basophils; settings: 300 mg daily, remained reduced through month 12
Experimental: (§1) The phase 3 clinical trial was a double-blind study of dexpramipexole in ALS patients randomized 1:1 to placebo or dexpramipexole 300 mg daily treatment. Hematology parameters were collected as part of routine safety monitoring. Eosinophil and basophil counts were retrospectively analyzed by visit.
Changes in basophil counts were also analyzed in the Phase 3 trial.

[3] = test system: eosinophils; settings: for mean eosinophils at week 16 recovered to, of baseline levels: after one-month washout following week 12
Experimental: The Phase 2 trial was a two-part, double-blind study that evaluated the safety, tolerability, and clinical effects of dexpramipexole in ALS patients.
In Part 1, subjects were randomized to placebo (n=27), 50 mg/day (n=23), 150 mg/day (n=26), or 300 mg/day dexpramipexole (n=26) for 12 weeks.

[4] = test system: eosinophils
Experimental: In a 39-week repeat-dose toxicology study, minipigs were dosed at 0, 7.5, 25, and 75 mg/kg dexpramipexole by daily oral gavage through Study Day 45 and at 0, 7.5, 25, and 50 mg/kg dexpramipexole from Study Day 46 to study completion.

[5] = test system: eosinophils; settings: OVA mice, 100 mg/kg, day 42, p=0.0041
[6] = test system: infiltrating white blood cells; settings: OVA mice, 30 and 100 mg/kg, day 42, compared to OVA
[7] = test system: eosinophils; remark: listed apart in the source
Experimental: as §1
Eosinophil levels were summarized over available time points and analyzed by ANOVA testing the effect of treatment vs. placebo on mean changes in serum eosinophil counts from baseline. Subjects with baseline eosinophils from 0 to 0.02×10^9/L (constituting less than 2% of all subjects analyzed) were censored from the primary analysis because of the inherent limitation to observe a decline from baseline.
Statistical analysis of the change from baseline was performed at month 6 to remove the effect of study dropouts in later months.

For CCCN[C@@H]1CCc2nc(N)sc2C1 [dexpramipexole, (6R)-2-amino-4,5,6,7-tetrahydro-6-(propylamino)benzothiazole], the tolerability [1] was “well-tolerated”, the “time at which basophil decline reached plateau” value [2] was about 4 month and the “mean eosinophils at week 16 recovered to, of baseline levels” value ([3]; 150 mg/day group) was 47%. The “mean eosinophils at week 16 recovered to, of baseline levels” value ([3]; 300 mg/day group) was 73%, the “effect on eosinophil counts” value ([3]; ALS subjects, Phase 2) was “dose- and time-dependent decrease in eosinophil counts” and the “effect on eosinophil counts in a subject with hypereosinophilia at baseline” value ([3]; one Phase 2 subject, Part 2 baseline, persisted through month 12) was “decrease in eosinophil counts”. For the same molecule, the “safety assessment of eosinophil differences” value ([4]; minipig, in vivo) was “not considered adverse”, the effect on eosinophils ([4]; minipigs, 0, 7.5, 25 and 75 (50 from Study Day 46) mg/kg daily oral gavage, 39 weeks) was “dose- and time-dependent reduction in eosinophils” and the “circulating levels of eosinophils compared to vehicle-treated controls” value [5] was “significantly reduced”. The “infiltrating white blood cells in bronchoalveolar lavage fluid” value [6] was “dose-dependent decrease in infiltrating white blood cells”, the “effect on peripheral blood eosinophil count” value ([7]; 300 mg daily, after 8-12 weeks of treatment, persisted for the duration of the trial) was “profound decrease” and the “effect on eosinophil counts in a subject with elevated baseline eosinophil counts” value ([7]; Phase 3 subject with highest baseline eosinophil count, persisted through month 12) was “decrease in eosinophil counts”. The “decrease in eosinophil count in subjects with higher eosinophil counts” value ([7]; subjects (n=42) with baseline >0.25×10^9/L, after 6 months of treatment) was 75%.
